In the supplement of paper PMC10307832:

Legend:
Experiment in all cases: relative viability (nuclei count vs DMSO), 5 days (fraction); higher = more cells survive
Carboplatin + Alpelisib = compound: C1CC(C1)(C(=O)O)C(=O)O.[NH2-].[NH2-].[Pt+2] [Carboplatin] + Cc1nc(NC(=O)N2CCC[C@H]2C(N)=O)sc1-c1ccnc(C(C)(C)C(F)(F)F)c1 [Alpelisib] (partner 2 µM)
How it was run: (§1)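 Relative viability was taken as the ratio of nuclei in treated wells to nuclei in vehicle wells. Lung cancer cell lines in 1536-well plates received compounds by pin tool one day after seeding, either one drug alone or a fixed anchor-drug dose plus five library-drug doses (not always all listed) in √10 steps. Nuclei were counted on 4× images after 5 days of treatment, and values are medians of duplicate plates.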

GSK126 + Crizotinib = compound: CC[C@H](C)N1C=C(C2=C(C=C(C=C21)C3=CN=C(C=C3)N4CCNCC4)C(=O)NCC5=C(C=C(NC5=O)C)C)C [GSK126] + C[C@@H](Oc1cc(-c2cnn(C3CCNCC3)c2)cnc1N)c1c(Cl)ccc(F)c1Cl [Crizotinib] (partner 1 µM)
How it was run: as §1

GSK126 + Alpelisib = compound: CC[C@H](C)N1C=C(C2=C(C=C(C=C21)C3=CN=C(C=C3)N4CCNCC4)C(=O)NCC5=C(C=C(NC5=O)C)C)C [GSK126] + Cc1nc(NC(=O)N2CCC[C@H]2C(N)=O)sc1-c1ccnc(C(C)(C)C(F)(F)F)c1 [Alpelisib] (partner 2 µM)
How it was run: as §1

MLN4924 + Alpelisib = compound: NS(=O)(=O)OC[C@@H]1C[C@@H](n2ccc3c(N[C@H]4CCc5ccccc54)ncnc32)C[C@@H]1O [MLN4924] + Cc1nc(NC(=O)N2CCC[C@H]2C(N)=O)sc1-c1ccnc(C(C)(C)C(F)(F)F)c1 [Alpelisib] (partner 2 µM)
How it was run: as §1

| Cell Line | relative viability (Carboplatin + Alpelisib; first compound 0.08 µM) | relative viability (Carboplatin + Alpelisib; first compound 0.253 µM) | relative viability (Carboplatin + Alpelisib; first compound 0.8 µM) | relative viability (Carboplatin + Alpelisib; first compound 2.53 µM) | relative viability (Carboplatin + Alpelisib; first compound 8 µM) | relative viability (GSK126 + Crizotinib; first compound 0.08 µM) | relative viability (GSK126 + Crizotinib; first compound 0.253 µM) | relative viability (GSK126 + Crizotinib; first compound 0.8 µM) | relative viability (GSK126 + Crizotinib; first compound 2.53 µM) | relative viability (GSK126 + Crizotinib; first compound 8 µM) | relative viability (GSK126 + Alpelisib; first compound 0.08 µM) | relative viability (GSK126 + Alpelisib; first compound 0.253 µM) | relative viability (GSK126 + Alpelisib; first compound 0.8 µM) | relative viability (GSK126 + Alpelisib; first compound 2.53 µM) | relative viability (GSK126 + Alpelisib; first compound 8 µM) | relative viability (MLN4924 + Alpelisib; first compound 0.04 µM) | relative viability (MLN4924 + Alpelisib; first compound 0.1265 µM) | relative viability (MLN4924 + Alpelisib; first compound 0.4 µM) | relative viability (MLN4924 + Alpelisib; first compound 1.265 µM) | relative viability (MLN4924 + Alpelisib; first compound 4 µM) |
| --- | --- | --- | --- | --- | --- | --- | --- | --- | --- | --- | --- | --- | --- | --- | --- | --- | --- | --- | --- | --- |
| NCI-H2023 | 0.65 | 0.546 | 0.601 | 0.397 | 0.193 | 0.839 | 0.678 | 0.747 | 0.74 | 0.747 | 0.635 | 0.641 | 0.588 | 0.677 | 0.571 | 0.731 | 0.528 | 0.224 | 0.0584 | 0.0729 |
| NCI-H2085 | 0.998 | 1.05 | 0.907 | 0.882 | 0.756 | 0.879 | 0.966 | 0.951 | 0.778 | 0.887 | 1.07 | 0.912 | 1 | 0.906 | 0.995 | 0.921 | 1.01 | 0.94 | 0.743 | 0.416 |
| NCI-H2087 | 1.18 | 1.04 | 0.992 | 0.848 | 0.647 | 0.861 | 0.985 | 0.888 | 0.821 | 0.867 | 0.993 | 1.21 | 1.26 | 0.919 | 1.05 | 1.13 | 0.815 | 0.381 | 0.178 | 0.136 |
| NCI-H2126 | 0.777 | 0.763 | 0.795 | 0.758 | 0.713 | 1.07 | 1.04 | 1.05 | 0.992 | 0.987 | 0.789 | 0.749 | 0.753 | 0.737 | 0.811 | 0.781 | 0.718 | 0.647 | 0.338 | 0.273 |
| NCI-H2170 | 0.882 | 0.852 | 0.801 | 0.794 | 0.636 | 1.32 | 1.15 | 1.16 | 1.09 | 1.23 | 0.932 | 0.852 | 0.839 | 0.795 | 0.745 | 0.906 | 0.555 | 0.457 | 0.169 | 0.171 |
| NCI-H2228 | 0.813 | 0.687 | 0.561 | 0.593 | 0.566 | 0.547 | 0.492 | 0.368 | 0.573 | 0.458 | 0.848 | 0.52 | 0.691 | 0.99 | 0.783 | – | 0.833 | 0.415 | 0.176 | 0.18 |
| NCI-H2347 | 1.02 | 1.12 | 1 | 0.97 | 0.838 | 0.706 | 0.667 | 0.658 | 0.708 | 0.559 | 1.22 | 0.918 | 1.09 | 0.99 | 0.907 | 1.02 | 0.865 | 0.638 | 0.33 | 0.382 |
| NCI-H2405 | 0.925 | 0.734 | 0.671 | 0.763 | 0.639 | 0.947 | 0.753 | 0.816 | 0.817 | 0.814 | 0.774 | 0.664 | 0.827 | 0.761 | 0.667 | 1.02 | 0.933 | 0.517 | 0.196 | 0.215 |
| NCI-H3122 | 0.773 | 0.862 | 0.869 | 0.762 | 0.764 | 0.251 | 0.341 | 0.292 | 0.267 | 0.347 | 0.827 | 0.854 | 0.767 | 0.768 | 0.829 | 0.799 | 0.452 | 0.251 | 0.188 | 0.133 |
| PC-3 [JPC-3] | 1.06 | 1.11 | 0.992 | 1 | 0.834 | 0.993 | 0.997 | 0.982 | 0.956 | 1.02 | 1.04 | 1.13 | 1.05 | 1.02 | 1.07 | 0.996 | 0.963 | 0.896 | 0.327 | 0.266 |
| PC-14 | 0.992 | 0.838 | 0.875 | 0.883 | 0.711 | 0.839 | 0.989 | 0.922 | 0.892 | 0.799 | 0.946 | 0.993 | 0.899 | 0.826 | 0.852 | 0.929 | 0.904 | 0.826 | 0.177 | 0.0924 |
| RERF-LC-KJ | 0.887 | 0.806 | 0.81 | 0.883 | 0.594 | 0.841 | 0.896 | 0.826 | 0.785 | 0.838 | 0.881 | 0.803 | 0.697 | 0.845 | 0.734 | 0.89 | 0.815 | 0.206 | 0.183 | 0.237 |
| SK-LU-1 | 0.903 | 1.07 | 0.933 | 0.792 | 0.392 | 1.01 | 0.935 | 0.949 | 1.13 | 1.06 | 1.01 | 1.11 | 1.2 | 1.18 | 1.03 | 1.1 | 0.572 | 0.281 | 0.145 | 0.194 |
| SK-MES-1 | 1.06 | 0.906 | 0.922 | 0.873 | 0.917 | 1.01 | 0.971 | 0.931 | 0.925 | 1.05 | 0.901 | 0.878 | 0.92 | 0.868 | 0.996 | 0.99 | 0.882 | 0.87 | 0.232 | 0.185 |
| SW 1573 | 0.827 | 0.758 | 0.767 | 0.798 | 0.693 | 0.868 | 0.82 | 0.751 | 0.84 | 0.785 | 0.725 | 0.811 | 0.819 | 0.773 | 0.786 | 1.01 | 0.974 | 0.957 | 0.155 | 0.0628 |
